Values quoted from earlier work as cited in patent publication US20070071819A1, “MULTIPLE UNIT MODIFIED RELEASE COMPOSITIONS OF CARBAMAZEPINE AND PROCESS FOR THEIR PREPARATION” (priority 2005, published 2007).

Conditions: below 4 μg/ml ineffective; greater than 12 μg/ml increased chances of side-effects

NC(=O)N1c2ccccc2C=Cc2ccccc21 [carbamazepine, 5H-dibenz-[b,f]azepine-5-carboxamide]
therapeutic blood serum concentration range: 4 to 12 µg/mL
